The values below come from US6433005B1, “Benzofuran and benzothiophene derivatives as anti-inflammatory agents” (Syntex (U.S.A.) LLC, priority 2000, dated 2002).

Each structure is given as a SMILES string.

In general, IC50 refers to the concentration needed to halve the response being measured. A high value points to lower potency.

One experiment has as its target T1, COX I (Homo sapiens, UniProt P23219).
T1 construct: made in house
The experiment is described as follows: Inhibition of COX I in vitro, radiometric assay with partially purified enzyme. The format is biochemical. The settings on record: 10 min preincubation, 20 micromolar [14C] arachidonic acid. The protocol: (§1) The COX I and COX II inhibitory activity of compounds of this invention in vitro was determined using partially purified COX I and COX II enzymes, prepared as described in J. Bamett et al., Biochim. Biophys. Acta, 1209,130-139 (1994).
(§2) COX I and COX II samples were diluted with Tris-HCl buffer (50 mM Tris-HCl, pH 7.9) containing 2 mM EDTA and 10% glycerol and reconstituted by incubating first with 2 mM phenol for 5 minutes and then with 1 micromolar hematin for an additional 5 minutes. 125 μL of the reconstituted COX I or COX II enzyme were preincubated for 10 minutes at room temperature in a shaking water bath with the compounds of the invention dissolved in 2-15 μL of DMSO or the carrier vehicles (control samples). The enzyme reaction was initiated by adding 25 μL of 1-[14 C] arachidonic acid (80,000-100,000 cpm/tube; 20 micromolar final concentration) and the reaction was allowed to continue for an additional 45 seconds. The reaction was terminated by adding 100 μL is of 2N HCl and 750 μL water. An aliquot (950 μL) of the reaction mixture was loaded onto a 1 mL C18 Sep-Pak column (J. T. Baker, Phillipsburg, N.J.) which had been previously washed with 2-3 mL methanol and equilibrated with 5-6 mL distilled water. Oxygenated products were quantitatively eluted with 3 mL of acetonitrile/water/acetic acid (50:50:0.1, v/v) and the radioactivity in the eluate determined in a scintillation counter. Compounds of this invention were active in this assay for COX II.
(§3) The COX inhibitory activities (expressed as IC50, the concentration causing 50% inhibition of the COX enzyme being assayed) of some exemplary compounds of the invention were: […]

The next experiment has as its target T2, COX II (Homo sapiens, UniProt P35354).
T2 construct: made in house
T2 sequence (P35354 18-604): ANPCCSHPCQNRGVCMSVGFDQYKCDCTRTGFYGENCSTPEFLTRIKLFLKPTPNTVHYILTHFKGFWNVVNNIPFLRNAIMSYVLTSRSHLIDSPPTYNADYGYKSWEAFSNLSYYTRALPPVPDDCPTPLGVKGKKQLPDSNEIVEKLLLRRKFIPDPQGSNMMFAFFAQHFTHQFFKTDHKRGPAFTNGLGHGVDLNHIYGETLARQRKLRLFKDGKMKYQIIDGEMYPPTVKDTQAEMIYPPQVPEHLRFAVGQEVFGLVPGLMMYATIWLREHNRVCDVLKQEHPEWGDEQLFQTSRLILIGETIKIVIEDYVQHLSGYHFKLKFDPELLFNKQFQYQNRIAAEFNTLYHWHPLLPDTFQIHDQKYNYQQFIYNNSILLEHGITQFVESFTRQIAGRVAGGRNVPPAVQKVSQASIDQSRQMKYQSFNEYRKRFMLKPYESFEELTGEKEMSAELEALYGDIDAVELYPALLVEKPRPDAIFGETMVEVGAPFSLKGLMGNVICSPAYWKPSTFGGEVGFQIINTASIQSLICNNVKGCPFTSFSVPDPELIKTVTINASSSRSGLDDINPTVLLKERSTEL
The experiment is described as follows: Inhibition of COX II in vitro, radiometric assay with partially purified enzyme. To be noted: 10 min preincubation, 20 micromolar [14C] arachidonic acid. The format is biochemical. The protocol: as §1, §2, §3

T1 sequence (P23219 24-599): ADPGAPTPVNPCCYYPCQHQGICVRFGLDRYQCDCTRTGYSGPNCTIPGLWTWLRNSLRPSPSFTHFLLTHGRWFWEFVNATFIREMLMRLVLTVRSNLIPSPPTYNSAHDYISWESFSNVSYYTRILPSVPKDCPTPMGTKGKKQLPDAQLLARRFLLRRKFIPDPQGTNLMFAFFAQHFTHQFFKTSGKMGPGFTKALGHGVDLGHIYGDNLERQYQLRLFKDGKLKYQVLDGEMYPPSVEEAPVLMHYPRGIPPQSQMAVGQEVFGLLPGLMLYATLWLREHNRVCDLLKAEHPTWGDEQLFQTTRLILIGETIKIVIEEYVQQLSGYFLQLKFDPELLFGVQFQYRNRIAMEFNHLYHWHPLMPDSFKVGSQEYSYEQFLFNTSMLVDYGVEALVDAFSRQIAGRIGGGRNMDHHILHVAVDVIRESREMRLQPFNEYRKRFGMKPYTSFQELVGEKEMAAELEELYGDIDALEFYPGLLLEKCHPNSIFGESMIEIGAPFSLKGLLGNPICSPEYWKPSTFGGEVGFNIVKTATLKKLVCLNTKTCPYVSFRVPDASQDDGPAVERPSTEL

On to `CS(=O)(=O)c1ccc2c(Sc3ccc(F)cc3)c(C#N)sc2c1` [Cpd 26, 3-(4-fluoro-phenylsulfanyl)-6-methanesulfonyl-benzo[b]thiophene-2-carbonitrile], for which the results for the concentration for half-maximal inhibition (IC50) at COX I and against COX II were above 120 µM and below 1.5 µM, respectively.

Consider `CS(=O)(=O)c1ccc2c(Sc3ccc(Cl)cc3Cl)c(C#N)sc2c1` [Cpd 19, 3-(2,4-dichloro-phenylsulfanyl)-6-methanesulfonyl-benzo[b]thiophene-2-carbonitrile], for which the results for the half-inhibitory concentration (IC50) against COX I and on COX II were above 120 µM and below 1.5 µM, respectively.

Take `CS(=O)(=O)c1ccc2c(Sc3ccccc3Cl)c(C#N)sc2c1` [Cpd 17, 3-(2-chloro-phenylsulfanyl)-6-methanesulfonyl-benzo[b]thiophene-2-carbonitrile]: the results for the IC50 against COX I and on COX II were above 120 µM and below 1 µM, respectively.

On to `CS(=O)(=O)c1ccc2c(Sc3ccccc3F)c(C#N)sc2c1` [Cpd 30, 3-(2-fluoro-phenylsulfanyl)-6-methanesulfonyl-benzo[b]thiophene-2-carbonitrile], for which the figures for the half-inhibitory concentration (IC50) against COX I and against COX II were above 120 µM and below 1.2 µM, respectively.

For the compound `CCOc1ccc(Oc2c(C#N)sc3cc(S(C)(=O)=O)ccc23)cc1` [Cpd 31, 3-(4-ethoxy-phenoxy)-6-methanesulfonyl-benzo[b]thiophene-2-carbonitrile], the IC50 is above 120 µM against COX I and below 1.5 µM on COX II.
